Assays:
[1] = molecular target: T1, DDR1 (Homo sapiens, UniProt Q08345); experiment: DDR1 binding assay (LanthaScreen Europium Kinase Binding assay); design: purchased Carna Biosciences; details: binding assay, 5 nM DDR1, 20 nM Kinase Tracer 178; Ki from IC50 by Cheng-Prusoff; read-out: Ki DDR1
Outline: (§1)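 TR-FRET tracer-displacement format: 665/615 nm emission ratio (340 nm excitation) gave IC50 by 4-parameter fit, then Ki via Cheng-Prusoff. Each kinase at 5 nM with 2 nM Eu-anti-GST antibody and Tracer 178 (DDR1 20 nM, DDR2 10 nM), 1 h, room temperature, HEPES pH 7.5 buffer.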

[2] = molecular target: T2, DDR2 (Homo sapiens, UniProt Q16832); experiment: DDR2 binding assay (LanthaScreen Europium Kinase Binding assay); design: purchased Life Technologies; details: binding assay, 5 nM DDR2, 10 nM Kinase Tracer 178; Ki from IC50 by Cheng-Prusoff; read-out: Ki DDR2
T2 sequence (Q16832 22-855): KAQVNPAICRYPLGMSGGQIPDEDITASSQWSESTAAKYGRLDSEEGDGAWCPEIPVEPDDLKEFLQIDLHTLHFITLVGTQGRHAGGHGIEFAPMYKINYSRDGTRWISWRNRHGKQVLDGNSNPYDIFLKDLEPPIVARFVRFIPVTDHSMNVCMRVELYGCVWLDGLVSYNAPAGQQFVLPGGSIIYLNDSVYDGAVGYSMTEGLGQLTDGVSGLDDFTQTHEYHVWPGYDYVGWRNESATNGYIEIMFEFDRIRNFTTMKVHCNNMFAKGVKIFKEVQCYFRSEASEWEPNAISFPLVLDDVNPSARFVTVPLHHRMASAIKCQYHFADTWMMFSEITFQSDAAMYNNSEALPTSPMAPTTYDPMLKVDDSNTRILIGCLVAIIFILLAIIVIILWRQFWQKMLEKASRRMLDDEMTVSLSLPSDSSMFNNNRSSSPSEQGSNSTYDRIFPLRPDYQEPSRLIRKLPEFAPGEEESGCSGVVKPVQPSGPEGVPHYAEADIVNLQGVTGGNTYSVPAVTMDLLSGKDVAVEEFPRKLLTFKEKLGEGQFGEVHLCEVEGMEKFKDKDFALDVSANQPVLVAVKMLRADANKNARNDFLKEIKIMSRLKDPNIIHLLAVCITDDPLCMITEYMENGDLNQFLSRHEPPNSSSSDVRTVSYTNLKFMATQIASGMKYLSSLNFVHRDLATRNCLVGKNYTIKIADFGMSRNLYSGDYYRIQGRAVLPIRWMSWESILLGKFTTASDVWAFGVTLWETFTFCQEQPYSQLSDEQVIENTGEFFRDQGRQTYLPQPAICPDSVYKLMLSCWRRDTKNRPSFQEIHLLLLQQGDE
Outline: as §1

[3] = molecular target: T1, DDR1; experiment: DDR1 cell based assay (PathHunter U2OS DDR1 assay); design: host or cells: U2OS-DDR1 (PathHunter); details: U2OS-DDR1 cells, bovine Type II Collagen 20 μg/ml
Outline: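 Receptor activation measured by enzyme-fragment complementation luminescence in engineered U2OS cells. Compound added 30 min before overnight challenge with 20 μg/ml bovine collagen II; data scaled between vehicle and collagen-stimulated controls, IC50 derived by four-parameter variable-slope fitting.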

T1 sequence (Q08345 19-913): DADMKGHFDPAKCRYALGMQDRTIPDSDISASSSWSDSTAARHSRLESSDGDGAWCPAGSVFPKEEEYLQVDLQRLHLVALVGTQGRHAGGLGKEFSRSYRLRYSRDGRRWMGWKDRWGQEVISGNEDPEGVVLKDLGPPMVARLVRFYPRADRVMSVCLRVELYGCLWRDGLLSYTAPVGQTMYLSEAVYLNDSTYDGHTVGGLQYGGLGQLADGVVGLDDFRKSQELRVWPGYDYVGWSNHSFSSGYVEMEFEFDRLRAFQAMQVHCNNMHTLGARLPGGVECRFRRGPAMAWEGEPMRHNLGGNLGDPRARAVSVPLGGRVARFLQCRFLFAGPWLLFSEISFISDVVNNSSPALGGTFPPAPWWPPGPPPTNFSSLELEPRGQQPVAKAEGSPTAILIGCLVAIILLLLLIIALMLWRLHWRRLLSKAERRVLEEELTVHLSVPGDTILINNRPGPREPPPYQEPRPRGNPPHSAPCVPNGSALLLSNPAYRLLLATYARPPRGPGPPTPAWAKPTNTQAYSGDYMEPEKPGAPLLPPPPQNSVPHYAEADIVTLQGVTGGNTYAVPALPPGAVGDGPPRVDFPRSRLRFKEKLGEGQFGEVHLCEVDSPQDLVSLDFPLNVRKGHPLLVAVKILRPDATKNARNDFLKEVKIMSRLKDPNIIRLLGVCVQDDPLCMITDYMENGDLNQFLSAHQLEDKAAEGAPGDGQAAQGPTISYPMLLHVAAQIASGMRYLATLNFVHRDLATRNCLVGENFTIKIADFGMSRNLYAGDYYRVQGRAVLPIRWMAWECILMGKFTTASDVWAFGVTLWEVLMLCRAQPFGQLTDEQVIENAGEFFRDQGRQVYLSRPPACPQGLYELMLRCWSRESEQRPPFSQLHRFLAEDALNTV

| SMILES | Ki [1] [nM] | Ki [2] [nM] | IC50 [3] [nM] |
| --- | --- | --- | --- |
| Cn1nc(C2(C(F)(F)F)CC2)cc1NC(=O)c1csc2c1CCN(C(=O)c1cnc3ccccn13)C2 [Example 114, 6-(imidazo[1,2-a]pyridine-3-carbonyl)-N-(1-methyl-3-(1-(trifluoromethyl)cyclopropyl)-1H-pyrazol-5-yl)-4,5,6,7-tetrahydrothieno[2,3-c]pyridine-3-carboxamide] | < 25 | < 25 | 50 to 80 |
| CC(F)(F)c1cncc(NC(=O)c2csc3c2CCN(C(=O)c2cnc4ccccn24)C3)c1 [Example 115, N-(5-(1,1-difluoroethyl)pyridin-3-yl)-6-(imidazo[1,2-a]pyridine-3-carbonyl)-4,5,6,7-tetrahydrothieno[2,3-c]pyridine-3-carboxamide] | < 25 | < 25 | 50 to 80 |
| Cn1nc(NC(=O)c2csc3c2CCN(C(=O)c2cnn4ccncc24)C3)cc1C(C)(C)C [Example 116, N-(5-(tert-butyl)-1-methyl-1H-pyrazol-3-yl)-6-(pyrazolo[1,5-a]pyrazine-3-carbonyl)-4,5,6,7-tetrahydrothieno[2,3-c]pyridine-3-carboxamide] | < 25 | < 25 | 25 to 50 |
| CC(C)(C)c1cncc(NC(=O)c2csc3c2CCN(C(=O)c2cnc4ccccn24)C3)c1 [Example 117, N-(5-(tert-butyl)pyridin-3-yl)-6-(imidazo[1,2-a]pyridine-3-carbonyl)-4,5,6,7-tetrahydrothieno[2,3-c]pyridine-3-carboxamide] | < 25 | < 25 | < 25 |
| O=C(Nc1cncc(OC(F)F)c1)c1csc2c1CCN(C(=O)c1cnc3ccccn13)C2 [Example 118, N-(5-(difluoromethoxy)pyridin-3-yl)-6-(imidazo[1,2-a]pyridine-3-carbonyl)-4,5,6,7-tetrahydrothieno[2,3-c]pyridine-3-carboxamide] | < 25 | < 25 | 25 to 50 |
| CCC(C)(C)c1cc(NC(=O)c2csc3c2CCN(C(=O)c2cnc4ccccn24)C3)on1 [Example 119, 6-(imidazo[1,2-a]pyridine-3-carbonyl)-N-(3-(tert-pentyl)isoxazol-5-yl)-4,5,6,7-tetrahydrothieno[2,3-c]pyridine-3-carboxamide] | < 25 | < 25 | 25 to 50 |
| O=C(Nc1cncc(C(F)(F)F)c1)c1csc2c1CCN(C(=O)c1cnc3n1CCCN3)C2 [Example 120, 6-(5,6,7,8-tetrahydroimidazo[1,2-a]pyrimidine-3-carbonyl)-N-(5-(trifluoromethyl)pyridin-3-yl)-4,5,6,7-tetrahydrothieno[2,3-c]pyridine-3-carboxamide] | < 25 | < 25 | 50 to 80 |
| COc1ncc(NC(=O)c2csc3c2CCN(C(=O)c2cnn4ccncc24)C3)cc1C(F)(F)F [Example 121, N-(6-methoxy-5-(trifluoromethyl)pyridin-3-yl)-6-(pyrazolo[1,5-a]pyrazine-3-carbonyl)-4,5,6,7-tetrahydrothieno[2,3-c]pyridine-3-carboxamide] | < 25 | < 25 | 50 to 80 |
| CC(F)(F)c1cncc(NC(=O)c2csc3c2CCN(C(=O)c2cnn4ccncc24)C3)c1 [Example 122, N-(5-(1,1-difluoroethyl)pyridin-3-yl)-6-(pyrazolo[1,5-a]pyrazine-3-carbonyl)-4,5,6,7-tetrahydrothieno[2,3-c]pyridine-3-carboxamide] | < 25 | < 25 | 50 to 80 |
| CC(C)(C)c1cncc(NC(=O)c2csc3c2CCN(C(=O)c2cnn4ccncc24)C3)c1 [Example 123, N-(5-(tert-butyl)pyridin-3-yl)-6-(pyrazolo[1,5-a]pyrazine-3-carbonyl)-4,5,6,7-tetrahydrothieno[2,3-c]pyridine-3-carboxamide] | < 25 | < 25 | 50 to 80 |
| O=C(Nc1cncc(C(F)(F)F)c1)c1csc2c1CCN(C(=O)c1cnn3ccccc13)C2 [Example 124, 6-(pyrazolo[1,5-a]pyridine-3-carbonyl)-N-(5-(trifluoromethyl)pyridin-3-yl)-4,5,6,7-tetrahydrothieno[2,3-c]pyridine-3-carboxamide] | < 25 | < 25 | < 25 |
| O=C(Nc1cncc(OC(F)F)c1)c1csc2c1CCN(C(=O)c1cnn3ccncc13)C2 [Example 125, N-(5-(difluoromethoxy)pyridin-3-yl)-6-(pyrazolo[1,5-a]pyrazine-3-carbonyl)-4,5,6,7-tetrahydrothieno[2,3-c]pyridine-3-carboxamide] | < 25 | < 25 | 25 to 50 |
| CC(C)(c1cc(NC(=O)c2csc3c2CCN(C(=O)c2cnn4ccncc24)C3)no1)C(F)(F)F [Example 126, 6-(pyrazolo[1,5-a]pyrazine-3-carbonyl)-N-(5-(1,1,1-trifluoro-2-methylpropan-2-yl)isoxazol-3-yl)-4,5,6,7-tetrahydrothieno[2,3-c]pyridine-3-carboxamide] | < 25 | < 25 | 25 to 50 |
| O=C(Nc1cncc(C(F)(F)F)c1)c1csc2c1CCN(C(=O)c1cnc3cnccn13)C2 [Example 127, 6-(imidazo[1,2-a]pyrazine-3-carbonyl)-N-(5-(trifluoromethyl)pyridin-3-yl)-4,5,6,7-tetrahydrothieno[2,3-c]pyridine-3-carboxamide] | < 25 | < 25 | 25 to 50 |
| O=C(Nc1cncc(OC(F)(F)F)c1)c1csc2c1CCN(C(=O)c1cnn3ccncc13)C2 [Example 128, 6-(pyrazolo[1,5-a]pyrazine-3-carbonyl)-N-(5-(trifluoromethoxy)pyridin-3-yl)-4,5,6,7-tetrahydrothieno[2,3-c]pyridine-3-carboxamide] | < 25 | < 25 | < 25 |
| CN(C)Cc1cc(NC(=O)c2csc3c2CCN(C(=O)c2cnc4ccccn24)C3)cc(C(F)(F)F)n1 [Example 129, N-(2-((dimethylamino)methyl)-6-(trifluoromethyl)pyridin-4-yl)-6-(imidazo[1,2-a]pyridine-3-carbonyl)-4,5,6,7-tetrahydrothieno[2,3-c]pyridine-3-carboxamide] | < 25 | 25 to 50 | 25 to 50 |
| CN(C)[C@@H]1CCN(C(=O)c2cc(NC(=O)c3csc4c3CCN(C(=O)c3cnc5ccccn35)C4)cc(C(F)(F)F)c2)C1 [Example 130, (R)-N-(3-(3-(dimethylamino)pyrrolidine-1-carbonyl)-5-(trifluoromethyl)phenyl)-6-(imidazo[1,2-a]pyridine-3-carbonyl)-4,5,6,7-tetrahydrothieno[2,3-c]pyridine-3-carboxamide] | < 25 | < 25 | 50 to 80 |
| N#Cc1cc(NC(=O)c2csc3c2CCN(C(=O)c2cnc4ccccn24)C3)cc(C(F)(F)F)c1 [Example 131, N-(3-cyano-5-(trifluoromethyl)phenyl)-6-(imidazo[1,2-a]pyridine-3-carbonyl)-4,5,6,7-tetrahydrothieno[2,3-c]pyridine-3-carboxamide] | < 25 | < 25 | 25 to 50 |
| O=C(Nc1ccc(CO)c(C(F)(F)F)c1)c1csc2c1CCN(C(=O)c1cnc3ccccn13)C2 [Example 132, N-(4-(hydroxymethyl)-3-(trifluoromethyl)phenyl)-6-(imidazo[1,2-a]pyridine-3-carbonyl)-4,5,6,7-tetrahydrothieno[2,3-c]pyridine-3-carboxamide] | < 25 | < 25 | < 25 |
| CN(C)Cc1ccc2ncc(C(=O)N3CCc4c(C(=O)Nc5cccc(C(F)(F)F)c5)csc4C3)n2c1 [Example 135, 6-(6-((dimethylamino)methyl)imidazo[1,2-a]pyridine-3-carbonyl)-N-(3-(trifluoromethyl)phenyl)-4,5,6,7-tetrahydrothieno[2,3-c]pyridine-3-carboxamide] | < 25 | 25 to 50 | 25 to 50 |
